# Data reported in patent publication US12390482B2, “Neurolytic agents and methods of using and identifying same” (priority 2021, dated 2025).
# pEC50: −log10 of the molar value.
# Key:
# [1] = system: WT mouse embryonic dorsal root ganglion (DRG) neurons; assay: Axon degeneration in cultured WT DRG neurons; assay type: cell-based; conditions: for activity as SARM1 activator (tested compounds): axon degeneration and SARM1 activation assays
# Experimental: (§1) DRG neuron culture: Mouse DRG culture was as described previously. Mouse DRGs were dissected at embryonic day 13.5. Approximately 50 ganglia were collected from each embryo and dissociated in 0.05% Trypsin containing 0.02% EDTA (Gibco) at 37° C. for 20 min. The DRG neurons were washed 3 times with DRG culture medium after incubation with Trypsin. Cells were seeded as spot cultures in 96-tissue culture plates (Corning) coated with 0.1 mg/ml poly-D-lysine and 0.1 mg/ml laminin. They were cultured in Neurobasal (Gibco) containing 2% B27 (Invitrogen), 100 ng/ml 2.5S NGF (Harlan Bioproducts), and 1 μM 5-fluoro-2′-deoxyuridine/1 μM uridine. The culture medium was exchanged with fresh DRG culture medium every 2-3 days. Lentiviruses were added 3 days after seeding (DIV3).
# […] After axon transection, bright-field images of distal axons were taken using the Operetta automated imaging system (PerkinElmer). Axon degeneration indexes were calculated from these bright-field images using ImageJ (NIH). The axon degeneration index was calculated as the ratio of fragmented axon areas as previously described. Indexes were calculated as the average of six fields per well.
# Sarm1 KO DRG neurons = assay: Axon degeneration and neuronal death in cultured Sarm1 KO DRG neurons; assay type: cell-based, mouse
# Experimental: as §1
# Quantification of axon degeneration: After culture for 7 days, axotomy was performed by cutting DRG axons manually with a razor blade. After axon transection, bright-field images of distal axons were taken using the Operetta automated imaging system (PerkinElmer). Axon degeneration indexes were calculated from these bright-field images using ImageJ (NIH). The axon degeneration index was calculated as the ratio of fragmented axon areas as previously described. Indexes were calculated as the average of six fields per well.
# SARM1 = biological target: T1, SARM1 (Homo sapiens, UniProt Q6SZW1); assay: SARM1 activation assay by PC6 fluorescence; assay type: biochemical
# T1 construct: StrepTag (N); made in house; host or cells: HEK 293T cells stably expressing NRK1
# T1 sequence (Q6SZW1 28-724): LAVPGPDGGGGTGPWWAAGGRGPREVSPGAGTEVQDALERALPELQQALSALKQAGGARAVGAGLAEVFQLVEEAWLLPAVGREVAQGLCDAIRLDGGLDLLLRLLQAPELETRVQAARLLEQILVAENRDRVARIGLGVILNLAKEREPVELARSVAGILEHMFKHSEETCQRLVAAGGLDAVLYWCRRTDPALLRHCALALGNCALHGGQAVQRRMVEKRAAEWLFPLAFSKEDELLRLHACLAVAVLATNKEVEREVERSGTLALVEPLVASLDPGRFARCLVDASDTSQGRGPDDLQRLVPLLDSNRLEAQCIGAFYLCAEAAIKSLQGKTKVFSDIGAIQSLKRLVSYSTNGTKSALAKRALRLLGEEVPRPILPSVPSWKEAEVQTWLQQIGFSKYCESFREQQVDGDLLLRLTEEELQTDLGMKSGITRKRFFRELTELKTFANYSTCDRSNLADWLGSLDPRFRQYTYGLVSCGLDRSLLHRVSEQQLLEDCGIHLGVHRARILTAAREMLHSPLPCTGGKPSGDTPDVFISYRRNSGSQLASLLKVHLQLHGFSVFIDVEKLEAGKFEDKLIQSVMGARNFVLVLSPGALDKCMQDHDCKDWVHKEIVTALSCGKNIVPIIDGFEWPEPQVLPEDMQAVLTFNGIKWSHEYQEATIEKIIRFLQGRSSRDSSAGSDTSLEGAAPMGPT
# Experimental: SARM1 protein purification from mammalian cells: A HEK 293T cell line stably expressing NRK1 was used to produce SARM1 protein as previously described. In short, plasmid containing N-terminal StrepTag-SARM1 was transfected into NRK1-HEK 293T cells using X-tremeGENE reagent (Millipore Sigma). After 2 days, the cells were harvested and re-suspended with binding buffer (100 mM Tris-HCL pH 8, 150 mM sodium chloride, 0.01% Tween-20 with EDTA-free protease inhibitors (Pierce)). After sonication, cell debris was removed by centrifugation at 15,000×g for 10 minutes. Soluble lysates were then mixed with StrepTactin Megbeads (Cube Biotech) equilibrated with the same binding buffer. After incubation at 4° C. for 60 minutes, beads were washed with washing buffer (25 mM HEPES, pH 7.5 and 150 mM NaCl with EDTA-free protease inhibitors). […]
# SARM1 activation assay by PC6 fluorescence: Modified from previous paper, typically, in a mixture of 50 μl, ˜200 ng of SARM1(on-beads) was mixed with 50 μM PC6, 50 μM NAD^+ and 0 to 100 μM of purified 3APMN. The reaction was carried out in a Bio Tek's Cytation 5 plate reader at 25° C. Fluorescence signal, which corresponds to PAD6 formation, was recorded with 405 nm excitation and 520 nm emission wavelengths every 2 minutes. The production rate of PAD6 was calculated based on the fluorescence changes within the first 30 minutes of reaction.
# WT DRG neurons = assay: Metabolite measurement by LC-MS/MS in WT DRG neurons; assay type: cell-based, mouse; conditions: neurons pre-treated with FK866 prior to 3-AP addition
# Experimental: as §1
# Metabolite measurement using LC-MS/MS: Lyophilized samples were reconstituted with 50 μl of 5 mM ammonium formate and centrifuged at 12,000 g for 10 min. Cleared supernatants were transferred to sample vials. Serial dilutions of standards for each metabolite in 5 mM ammonium formate were used for calibration. HPLC-mass spectrometry analysis was performed on an Agilent 1290 Infinity II liquid chromatography system (Agilent Technologies, Santa Clara, CA) with a flexible pump, multisampler, sample cooler and an MCT containing an Atlantis T3 column (2.1×150 mm, 3 μm) and VanGuard guard cartridge (2.1 mm×5 mm, 3 μm) (Waters, Milford, MA), coupled to an Agilent 6470 Triple Quad mass spectrometer (Agilent Technologies, Santa Clara, CA). The mobile phase (0.15 ml/min) was 5 mM ammonium formate in water (A) and 100% methanol (B). The column was equilibrated with 0% B, maintained after injection for 2 min, then a linear gradient to 20% B applied over 4 min. The column was then ramped to 50% B over 2 min, and held at 50% for 2 min, then reverted back to 0% B over the next 5 min and allowed to re-equilibrate at 0% B for 9 min. The total run time was 24 min per sample. […] Raw data were acquired and quantified using MassHunter Workstation software version B.08.00 for 6400 Series Triple Quadrupole (Agilent Technologies, Santa Clara, CA).
# sensory neurons = assay: Vacor-induced degeneration of sensory neurons; assay type: cell-based
structure (smiles),measurement,setting,value
CC(=O)c1ccccn1 [2-acetylpyridine],activity as SARM1 activator (tested compounds),[1],did not work
Nc1ccccn1 [2-aminopyridine],axon degeneration,Sarm1 KO DRG neurons,not in Sarm1 KO neurons
same,axon degeneration,[1]; WT neurons,causes axon degeneration
"CC(=O)c1ccc[n+]([C@@H]2O[C@H](COP(=O)([O-])O)[C@@H](O)[C@H]2O)c1 [3-APMN, 3-acetylpyridine mononucleotide]",pEC50,SARM1,~4.36
Nc1cccnc1 [3-aminopyridine],activity as SARM1 activator (tested compounds),[1],did not work
CC(=O)c1ccncc1 [4-acetylpyridine],activity as SARM1 activator (tested compounds),[1],did not work
Nc1ccncc1 [4-aminopyridine],activity as SARM1 activator (tested compounds),[1],did not work
"O=C(/C=C/c1cccnc1)NCCCCC1CCN(C(=O)c2ccccc2)CC1 [FK866, reference compound]",effect on neurotoxic actions of 3-AP,"[1]; FK866 25, 50 or 100 nM overnight, then 3-AP 300 μM",blocks the neurotoxic actions of 3-AP
same,"3-APMN, 3-APAD and cADPR levels in 3-AP treated neurons",WT DRG neurons,"3-APMN and 3-APAD remain at baseline, and cADPR levels do not increase"
"NC(=O)c1cccnc1 [Nam, nicotinamide]",effect of pretreatment on 3-AP-induced axon degeneration,"[1]; Nam 0, 50, 100 or 200 μM overnight, then 3-AP 500 μM",reduces 3-AP-induced axon degeneration in a dose-dependent manner
"O=C(NCc1cccnc1)Nc1ccc([N+](=O)[O-])cc1 [Vacor, N-(4-Nitrophenyl)-N′-[(pyridin-3-yl)methyl]urea]",SARM1 dependence of neuron degeneration,sensory neurons; FIG. 6,SARM1-dependent
same,effect of local application to neurites,sensory neurons; local application to neurites,causes distal neurite degeneration without harming neuron cell bodies
